What was measured:
[1] = target: GDP-bound NRAS wild-type protein (Homo sapiens, UniProt P01111); assay: Binding to NRAS by surface plasmon resonance (SPR), Single Cycle Kinetics; settings: KD ratio NRAS/KRAS, class symbols
[2] = target: GDP-bound HRAS wild-type protein (Homo sapiens, UniProt P01112); assay: Binding to HRAS by surface plasmon resonance (SPR), Single Cycle Kinetics; settings: KD ratio HRAS/KRAS, class symbols
GDP-bound HRAS wild-type protein, sequence (P01112 whole entry): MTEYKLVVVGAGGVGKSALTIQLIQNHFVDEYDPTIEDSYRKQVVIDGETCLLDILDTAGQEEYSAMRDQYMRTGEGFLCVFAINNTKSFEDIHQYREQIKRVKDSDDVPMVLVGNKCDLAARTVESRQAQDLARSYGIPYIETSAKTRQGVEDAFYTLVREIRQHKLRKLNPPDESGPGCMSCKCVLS

GDP-bound NRAS wild-type protein, sequence (P01111 whole entry): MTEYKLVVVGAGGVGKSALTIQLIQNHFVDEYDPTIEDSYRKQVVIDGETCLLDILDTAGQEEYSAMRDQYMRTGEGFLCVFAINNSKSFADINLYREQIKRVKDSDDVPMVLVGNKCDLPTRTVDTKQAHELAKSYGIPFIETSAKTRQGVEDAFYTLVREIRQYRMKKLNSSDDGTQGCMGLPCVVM

Row | SMILES | NRAS/KRAS (ratio of KD value with respect to GDP-bound NRAS wild-type protein to KD value with respect to KRAS) [1] | HRAS/KRAS (ratio of KD value with respect to GDP-bound HRAS wild-type protein to KD value with respect to KRAS) [2]
1 | CCCC[C@H]1C(=O)N[C@@H]([C@@H](C)CC)C(=O)N(C)CC(=O)N(C)[C@H]2C/C=C\CCN(C2=O)[C@@H](Cc2ccc(C)cc2)C(=O)N(C)CC(=O)N[C@@H](CCc2cc(F)c(C(F)(F)F)c(F)c2)C(=O)N2C[C@H](OCC)C[C@H]2C(=O)NC2(CCC2)C(=O)N(C)[C@@H](C2CCCC2)C(=O)N(C)[C@H](C(=O)N(C)CC)CC(=O)N1C [PP2796] | A (a compound having 10 or more and less than 20 is denoted as A) | A (a compound having 10 or more and less than 20 is denoted as A)
2 | CCC[C@H]1C(=O)N[C@@H]([C@@H](C)CC)C(=O)N(C)CC(=O)N(C)[C@H]2C/C=C\CCN(C2=O)[C@@H](Cc2ccc(C)cc2)C(=O)N(C)CC(=O)N[C@@H](CCc2cc(F)c(C(F)(F)F)c(F)c2)C(=O)N2C[C@H](OCC)C[C@H]2C(=O)NC2(CC(C)(C)C2)C(=O)N(C)[C@@H](CC2CC2)C(=O)N(C)[C@H](C(=O)N(C)C)CC(=O)N1C [PP2797] | A (a compound having 10 or more and less than 20 is denoted as A) | A (a compound having 10 or more and less than 20 is denoted as A)
3 | CCCC[C@H]1C(=O)N[C@@H]([C@@H](C)CC)C(=O)N(C)CC(=O)N(C)[C@H]2C/C=C\CCN(C2=O)[C@@H](Cc2ccc(C)cc2)C(=O)N(C)CC(=O)N[C@@H](CCc2cc(F)c(C(F)(F)F)c(F)c2)C(=O)N2C[C@H](OCC)C[C@H]2C(=O)NC2(CCC2)C(=O)N(C)[C@@H](C2CCCC2)C(=O)N(C)[C@H](C(=O)N(C)C)CC(=O)N1C [PP2798] | A (a compound having 10 or more and less than 20 is denoted as A) | A (a compound having 10 or more and less than 20 is denoted as A)
4 | CCC[C@H]1C(=O)N[C@@H]([C@@H](C)CC)C(=O)N(C)CC(=O)N(C)[C@H]2C/C=C\CCN(C2=O)[C@@H](Cc2ccc(C)cc2)C(=O)N(C)CC(=O)N[C@@H](CCc2ccc(Cl)c(Cl)c2)C(=O)N2C[C@H](OCC)C[C@H]2C(=O)NC2(CC(C)(C)C2)C(=O)N(C)[C@@H](CC2CC2)C(=O)N(C)[C@H](C(=O)N(C)C)CC(=O)N1C [PP2799] | A (a compound having 10 or more and less than 20 is denoted as A) | A (a compound having 10 or more and less than 20 is denoted as A)
5 | CCCC[C@H]1C(=O)N[C@@H]([C@@H](C)CC)C(=O)N(C)CC(=O)N(C)[C@H]2C/C=C\CCN(C2=O)[C@@H](Cc2ccc(C)cc2)C(=O)N(C)CC(=O)N[C@@H](CCc2cc(F)c(C(F)(F)F)c(F)c2)C(=O)N2C[C@H](OCC)C[C@H]2C(=O)NC2(CC(C)(C)C2)C(=O)N(C)[C@@H](C2CCCC2)C(=O)N(C)[C@H](C(=O)N(C)C)CC(=O)N1C [PP2800] | A (a compound having 10 or more and less than 20 is denoted as A) | A (a compound having 10 or more and less than 20 is denoted as A)
6 | CC[C@H](C)[C@@H]1NC(=O)[C@H](CC2CC2)N(C)C(=O)C[C@@H](C(=O)N(C)CC)N(C)C(=O)[C@H](C2CCCC2)N(C)C(=O)C2(CC(C)(C)C2)NC(=O)[C@@H]2C[C@@H](F)CN2C(=O)[C@H](CCc2cc(F)c(C(F)(F)F)c(F)c2)NC(=O)CN(C)C(=O)[C@H](Cc2ccc(C)cc2)N2CC/C=C\C[C@@H](C2=O)N(C)C(=O)CN(C)C1=O [PP2802] | AA (a compound having 20 or more is denoted as AA) | A (a compound having 10 or more and less than 20 is denoted as A)
7 | CCC[C@H]1C(=O)N[C@@H]([C@@H](C)CC)C(=O)N(C2CC2)CC(=O)N(C)[C@H]2C/C=C\CCN(C2=O)[C@@H](Cc2ccc(C)cc2)C(=O)N(C)CC(=O)N[C@@H](CCc2ccc(C(F)(F)F)c(OC)c2)C(=O)N2C[C@H](OCC)C[C@H]2C(=O)NC2(CC(C)(C)C2)C(=O)N(C)[C@@H](CC2CC2)C(=O)N(C)[C@H](C(=O)N(C)C)CC(=O)N1C [PP2803] | A (a compound having 10 or more and less than 20 is denoted as A) | A (a compound having 10 or more and less than 20 is denoted as A)
8 | CC[C@H](C)[C@@H]1NC(=O)[C@H](CC2CC2)N(C)C(=O)C[C@@H](C(=O)N(C)C)N(C)C(=O)[C@H](C2CCCC2)N(C)C(=O)C2(CC(C)(C)C2)NC(=O)[C@@H]2C[C@@H](F)CN2C(=O)[C@H](CCc2cc(F)c(C(F)(F)F)c(F)c2)NC(=O)CN(C)C(=O)[C@H](Cc2ccc(C)cc2)N2CC/C=C\C[C@@H](C2=O)N(C)C(=O)CN(C)C1=O [PP2804] | A (a compound having 10 or more and less than 20 is denoted as A) | A (a compound having 10 or more and less than 20 is denoted as A)
9 | CCC[C@H]1C(=O)N[C@@H]([C@@H](C)CC)C(=O)N(C2CC2)CC(=O)N(C)[C@H]2C/C=C\CCN(C2=O)[C@@H](Cc2ccc(C)cc2)C(=O)N(C)CC(=O)N[C@@H](CCc2ccc(Cl)c(Cl)c2)C(=O)N2C[C@H](OCC)C[C@H]2C(=O)NC2(CC(C)(C)C2)C(=O)N(C)[C@@H](CC2CC2)C(=O)N(C)[C@H](C(=O)N(C)C)CC(=O)N1C [PP2805] | A (a compound having 10 or more and less than 20 is denoted as A) | A (a compound having 10 or more and less than 20 is denoted as A)
10 | CCCC[C@H]1C(=O)N[C@@H]([C@@H](C)CC)C(=O)N(C)CC(=O)N(C)[C@H]2C/C=C\CCN(C2=O)[C@@H](Cc2ccc(C(F)(F)F)cc2)C(=O)N(C)CC(=O)N[C@@H](CCc2cc(F)c(C(F)(F)F)c(F)c2)C(=O)N2C[C@H](OCC)C[C@H]2C(=O)NC2(CC(C)(C)C2)C(=O)N(C)[C@@H](C2CCCC2)C(=O)N(C)[C@H](C(=O)N(C)CC)CC(=O)N1C [PP2806] | A (a compound having 10 or more and less than 20 is denoted as A) | A (a compound having 10 or more and less than 20 is denoted as A)
11 | CCC[C@H]1C(=O)N[C@@H]([C@@H](C)CC)C(=O)N(C)CC(=O)N(C)[C@H]2C/C=C\CCN(C2=O)[C@@H](Cc2ccc(C(F)(F)F)cc2)C(=O)N(C)CC(=O)N[C@@H](CCc2cc(F)c(C(F)(F)F)c(F)c2)C(=O)N2C[C@H](OCC)C[C@H]2C(=O)NC2(CC(C)(C)C2)C(=O)N(C)[C@@H](CC2CC2)C(=O)N(C)[C@H](C(=O)N(C)C)CC(=O)N1C [PP2807] | AA (a compound having 20 or more is denoted as AA) | A (a compound having 10 or more and less than 20 is denoted as A)
12 | CCCC[C@H]1C(=O)N[C@@H]([C@@H](C)CC)C(=O)N(C)CC(=O)N(C)[C@H]2C/C=C\CCN(C2=O)[C@@H](Cc2ccc(C)cc2)C(=O)N(C)CC(=O)N[C@@H](CCc2cc(F)c(C(F)(F)F)c(F)c2)C(=O)N2C[C@H](OCC)C[C@H]2C(=O)NC2(CC(C)(C)C2)C(=O)N(C)[C@@H](C2CCCC2)C(=O)N(C)[C@H](C(=O)N(C)CC)CC(=O)N1C [PP2808] | B (a compound having 3 or more and less than 10 is denoted as B) | B (a compound having 3 or more and less than 10 is denoted as B)
13 | CCC[C@H]1C(=O)N[C@@H]([C@@H](C)CC)C(=O)N(C)CC(=O)N(C)[C@H]2C/C=C\CCN(C2=O)[C@@H](Cc2ccc(C(F)(F)F)cc2)C(=O)N(C)CC(=O)N[C@@H](CCc2ccc(C(F)(F)F)c(OC)c2)C(=O)N2C[C@H](OCC)C[C@H]2C(=O)NC2(CC(C)(C)C2)C(=O)N(C)[C@@H](CC2CC2)C(=O)N(C)[C@H](C(=O)N(C)C)CC(=O)N1C [PP2809] | A (a compound having 10 or more and less than 20 is denoted as A) | A (a compound having 10 or more and less than 20 is denoted as A)
14 | CCO[C@@H]1C[C@H]2C(=O)N(C)C3(CC(C)(C)C3)C(=O)N(C)[C@@H](C(CC)CC)C(=O)N(C)[C@H](C(=O)N(C)C)CC(=O)N(C)[C@@H](COC)C(=O)N[C@@H]([C@@H](C)CC)C(=O)N(C)CC(=O)N(C)[C@H]3C/C=C\CCN(C3=O)[C@@H](Cc3ccc(C)cc3)C(=O)N(C)CC(=O)N[C@@H](CCc3ccc(Cl)c(Cl)c3)C(=O)N2C1 [PP2810] | AA (a compound having 20 or more is denoted as AA) | A (a compound having 10 or more and less than 20 is denoted as A)
15 | CCC[C@H]1C(=O)N[C@@H]([C@@H](C)CC)C(=O)N(C)CC(=O)N(C)[C@H]2C/C=C\CCN(C2=O)[C@@H](Cc2ccc(C(F)(F)F)cc2)C(=O)N(C)CC(=O)N[C@@H](CCc2ccc(Cl)c(Cl)c2)C(=O)N2C[C@H](OCC)C[C@H]2C(=O)NC2(CC(C)(C)C2)C(=O)N(C)[C@@H](CC2CC2)C(=O)N(C)[C@H](C(=O)N(C)C)CC(=O)N1C [PP2811] | A (a compound having 10 or more and less than 20 is denoted as A) | A (a compound having 10 or more and less than 20 is denoted as A)

Reference: patent US20250230193A1, “CYCLIC COMPOUND HAVING SELECTIVE KRAS INHIBITORY EFFECT ON HRAS AND NRAS” (CHUGAI SEIYAKU KABUSHIKI KAISHA, priority 2022, published 2025)
